Legend:
[1] = system: HepG2 cell lines (hepatoma carcinoma cell); assay: Inhibition on cell proliferation of HepG2 (SRB assay); assay type: cell-based; settings: Homo sapiens, 72 hours treatment, SRB staining, read-out: Inhibitory activities against HepG2 (IC50)
Procedure: HepG2 cell lines (ATCC #HB-8065™) were obtained from ATCC (American type culture collection; Rockville, Md.). HepG2 cell lines were incubated in a MEM medium supplemented with 10% FBS (Gibco) and 1% penicillin/streptomycin (Gibco) under 37° C., 5% CO2 and 95% air. The carcinoma cells grown on the growth medium were transferred into a 96-well plate at a density of 5,000 cells/well (HepG2), and cultured for 18 hours or more. The cells were treated with 10 μM˜0.1 nM of the test compounds, and cultured for 72 hours. Subsequently, the cells were fixed with 10% TCA (trichloroacetic acid) and stained with SRB (sulforhodamine B), and absorbance values were measured at 540 nm. Then, IC50 values, i.e., the concentration of a compound to cause 50% reduction in proliferation of cancer cells, were calculated therefrom. The growth rates of cancer cells were calculated by Equation 1 or 2. [(Ti−Tz)/(C−Tz)]×100 (in case Ti>Tz) [Equation 1] [(Ti−Tz)/Tz]×100 (in case Ti<Tz) [Equation 2]
In Equations 1 and 2, ‘Tz’ refers to a the absorbance value measured in the cells just before the application of the test compound. ‘C’ refers to the absorbance value measured in the […], and ‘Ti’ refers to the absorbance value measured in the cells treated with the test compounds.
IC50 value is the concentration of the test compound when the value of Equation 1 is 50, which indicates the concentration of the test compound needed to reduce the growth of cancer cells to 50%. On each measurement, the test compounds were compared with a reference.

C-Raf = C-Raf (Homo sapiens (Human), UniProt P04049, Y340D/Y341D); assay: Inhibitory activity against C-Raf kinase (Invitrogen Kinase Profiling Service); assay type: biochemical
C-Raf, sequence (P04049 whole entry Y340D/Y341D): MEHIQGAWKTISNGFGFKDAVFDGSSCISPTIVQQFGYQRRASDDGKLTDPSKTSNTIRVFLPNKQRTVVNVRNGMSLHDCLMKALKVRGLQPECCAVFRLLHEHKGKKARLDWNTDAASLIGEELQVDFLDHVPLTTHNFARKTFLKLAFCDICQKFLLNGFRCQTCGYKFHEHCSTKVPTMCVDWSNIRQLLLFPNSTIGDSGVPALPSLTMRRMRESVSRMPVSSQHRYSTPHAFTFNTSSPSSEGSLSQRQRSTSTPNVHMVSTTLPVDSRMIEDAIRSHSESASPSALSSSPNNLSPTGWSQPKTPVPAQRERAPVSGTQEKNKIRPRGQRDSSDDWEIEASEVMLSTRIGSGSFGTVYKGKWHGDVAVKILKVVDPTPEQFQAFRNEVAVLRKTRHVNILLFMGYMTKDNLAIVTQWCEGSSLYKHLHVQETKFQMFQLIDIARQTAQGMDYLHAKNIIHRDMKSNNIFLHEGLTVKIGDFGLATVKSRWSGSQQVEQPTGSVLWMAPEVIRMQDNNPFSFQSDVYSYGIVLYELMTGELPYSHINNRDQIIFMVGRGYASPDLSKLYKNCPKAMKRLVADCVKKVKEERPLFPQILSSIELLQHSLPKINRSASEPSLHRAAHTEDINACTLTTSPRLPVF
Procedure: (§1) The compounds prepared in Examples were tested for inhibitory activities against three subtypes of RAF, i.e. RAF1 Y340D Y341D, BRAF normal type and BRAF V600E, using Kinase Profiling Service (Invitrogen) according to the manufacturer's instructions. The levels of the inhibitory activities of the compounds against the enzymes were calculated as % inhibitory activities at various concentrations. Based on the % inhibitory activities, dose-response curves were plotted and IC50 values were calculated using GraphPad Prism software.

CDK1 = CDK1 (Homo sapiens (Human), UniProt P06493); assay: Kinase profiling, % inhibition at 1.0 μM; assay type: biochemical; settings: compound 1.0 μM; read-out: Inhibitory activity at 1.0 μM (%), CDK1
Src = Src (Homo sapiens (Human), UniProt P12931); assay: Kinase profiling, IC50; assay type: biochemical; settings: read-out: Inhibitory activity (IC50, nM), Src
Procedure: [The source words this procedure for another target and reports this target under the same test.] as §1

FGFR-2 = FGFR-2 (Homo sapiens (Human), UniProt P21802); assay: Kinase profiling, IC50; assay type: biochemical; settings: read-out: Inhibitory activity (IC50, nM), FGFR-2
Procedure: [The source words this procedure for another target and reports this target under the same test.] as §1

Abl = Abl (Homo sapiens (Human), UniProt P00519); assay: Kinase profiling, IC50; assay type: biochemical; settings: read-out: Inhibitory activity (IC50, nM), Abl
Abl, sequence (P00519 whole entry): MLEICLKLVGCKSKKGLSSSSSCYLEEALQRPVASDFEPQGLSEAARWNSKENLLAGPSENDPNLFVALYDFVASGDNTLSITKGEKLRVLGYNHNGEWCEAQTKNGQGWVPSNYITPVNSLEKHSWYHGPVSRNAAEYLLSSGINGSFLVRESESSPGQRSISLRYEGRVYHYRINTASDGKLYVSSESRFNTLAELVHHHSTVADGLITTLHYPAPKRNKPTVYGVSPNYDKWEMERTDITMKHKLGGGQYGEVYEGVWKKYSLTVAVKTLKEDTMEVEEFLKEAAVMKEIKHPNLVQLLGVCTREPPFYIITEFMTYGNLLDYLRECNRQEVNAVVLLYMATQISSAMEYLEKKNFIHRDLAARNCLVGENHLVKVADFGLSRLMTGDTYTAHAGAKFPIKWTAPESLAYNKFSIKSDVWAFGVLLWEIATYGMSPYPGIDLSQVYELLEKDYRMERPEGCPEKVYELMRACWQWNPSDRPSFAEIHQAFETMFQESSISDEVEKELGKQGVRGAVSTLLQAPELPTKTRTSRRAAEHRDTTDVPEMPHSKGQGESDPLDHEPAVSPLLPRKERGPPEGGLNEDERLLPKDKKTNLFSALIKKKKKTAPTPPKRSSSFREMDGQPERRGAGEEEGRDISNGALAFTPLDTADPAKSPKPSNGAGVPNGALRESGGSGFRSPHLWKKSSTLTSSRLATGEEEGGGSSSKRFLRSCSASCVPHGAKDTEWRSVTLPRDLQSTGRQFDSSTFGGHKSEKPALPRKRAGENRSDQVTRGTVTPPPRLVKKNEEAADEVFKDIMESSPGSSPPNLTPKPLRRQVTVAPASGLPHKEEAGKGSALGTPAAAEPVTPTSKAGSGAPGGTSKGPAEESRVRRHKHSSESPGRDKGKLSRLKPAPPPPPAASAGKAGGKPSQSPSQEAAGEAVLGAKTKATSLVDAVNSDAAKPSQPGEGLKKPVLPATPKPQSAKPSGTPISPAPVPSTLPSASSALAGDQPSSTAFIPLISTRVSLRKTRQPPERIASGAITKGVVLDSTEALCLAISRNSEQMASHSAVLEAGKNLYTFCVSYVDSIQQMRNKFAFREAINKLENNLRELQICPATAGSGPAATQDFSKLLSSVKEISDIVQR
Procedure: [The source words this procedure for another target and reports this target under the same test.] as §1

FGFR-1 = FGFR-1 (Homo sapiens (Human), UniProt P11362); assay: Kinase profiling, IC50; assay type: biochemical; settings: read-out: Inhibitory activity (IC50, nM), FGFR-1
Procedure: [The source words this procedure for another target and reports this target under the same test.] as §1

Her-2 = Her-2 (Homo sapiens (Human), UniProt P04626); assay: Kinase profiling, IC50; assay type: biochemical; settings: read-out: Inhibitory activity (IC50, nM), Her-2
Procedure: [The source words this procedure for another target and reports this target under the same test.] as §1

VEGFR-2 = VEGFR-2 (Homo sapiens (Human), UniProt P35968); assay: Kinase profiling, IC50; assay type: biochemical; settings: read-out: Inhibitory activity (IC50, nM), VEGFR-2
Procedure: [The source words this procedure for another target and reports this target under the same test.] as §1

PDGFR-α = PDGFR-α (Homo sapiens (Human), UniProt P16234); assay: Kinase profiling, IC50; assay type: biochemical; settings: read-out: Inhibitory activity (IC50, nM), PDGFR-α
Procedure: [The source words this procedure for another target and reports this target under the same test.] as §1

EGFR = EGFR (Homo sapiens (Human), UniProt P00533); assay: Kinase profiling, IC50; assay type: biochemical; settings: read-out: Inhibitory activity (IC50, nM), EGFR
Procedure: [The source words this procedure for another target and reports this target under the same test.] as §1

PDGFR-β = PDGFR-β (Homo sapiens (Human), UniProt P09619); assay: Kinase profiling, IC50; assay type: biochemical; settings: read-out: Inhibitory activity (IC50, nM), PDGFR-β
Procedure: [The source words this procedure for another target and reports this target under the same test.] as §1

B-Raf (WT) = B-Raf (WT) (Homo sapiens (Human), UniProt P15056); assay: Kinase profiling, IC50; assay type: biochemical; settings: read-out: Inhibitory activity (IC50, nM), B-Raf (WT)
B-Raf (WT), sequence (P15056 whole entry): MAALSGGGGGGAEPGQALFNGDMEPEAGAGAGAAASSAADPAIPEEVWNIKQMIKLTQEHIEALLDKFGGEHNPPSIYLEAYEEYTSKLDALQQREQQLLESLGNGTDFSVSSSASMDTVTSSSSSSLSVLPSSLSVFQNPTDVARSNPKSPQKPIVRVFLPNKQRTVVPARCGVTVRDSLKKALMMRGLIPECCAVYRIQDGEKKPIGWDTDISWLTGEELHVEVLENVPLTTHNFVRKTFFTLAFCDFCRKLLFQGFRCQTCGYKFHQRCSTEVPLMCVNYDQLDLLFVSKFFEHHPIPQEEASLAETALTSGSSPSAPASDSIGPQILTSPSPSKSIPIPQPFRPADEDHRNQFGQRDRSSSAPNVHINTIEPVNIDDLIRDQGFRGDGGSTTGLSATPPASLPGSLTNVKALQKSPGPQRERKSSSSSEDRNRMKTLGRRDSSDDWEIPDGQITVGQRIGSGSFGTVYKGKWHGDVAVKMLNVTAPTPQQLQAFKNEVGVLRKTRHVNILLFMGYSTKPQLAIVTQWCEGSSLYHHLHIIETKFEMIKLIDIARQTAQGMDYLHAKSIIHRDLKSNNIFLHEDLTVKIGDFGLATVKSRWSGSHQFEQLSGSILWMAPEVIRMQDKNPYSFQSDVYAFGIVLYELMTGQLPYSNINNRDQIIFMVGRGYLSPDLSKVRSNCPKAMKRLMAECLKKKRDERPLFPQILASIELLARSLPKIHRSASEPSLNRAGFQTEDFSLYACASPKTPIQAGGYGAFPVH
Procedure: as §1

IGF-1R = IGF-1R (Homo sapiens (Human), UniProt P08069); assay: Kinase profiling, IC50; assay type: biochemical; settings: read-out: Inhibitory activity (IC50, nM), IGF-1R
Procedure: [The source words this procedure for another target and reports this target under the same test.] as §1

B-Raf (V600E) = B-Raf (V600E) (Homo sapiens (Human), UniProt P15056, V600E); assay: Kinase profiling, IC50; assay type: biochemical; settings: read-out: Inhibitory activity (IC50, nM), B-Raf (V600E)
B-Raf (V600E), sequence (P15056 whole entry V600E): as the sequence (P15056 whole entry) above, with V600E counted along it
Procedure: as §1

FLT-3 = FLT-3 (Homo sapiens (Human), UniProt P36888); assay: Kinase profiling, IC50; assay type: biochemical; settings: read-out: Inhibitory activity (IC50, nM), FLT-3
Procedure: [The source words this procedure for another target and reports this target under the same test.] as §1

PLK3 = PLK3 (Homo sapiens (Human), UniProt Q9H4B4); assay: Kinase profiling, % inhibition at 1.0 μM; assay type: biochemical; settings: compound 1.0 μM; read-out: Inhibitory activity at 1.0 μM (%), PLK3
PLK3, sequence (Q9H4B4 whole entry): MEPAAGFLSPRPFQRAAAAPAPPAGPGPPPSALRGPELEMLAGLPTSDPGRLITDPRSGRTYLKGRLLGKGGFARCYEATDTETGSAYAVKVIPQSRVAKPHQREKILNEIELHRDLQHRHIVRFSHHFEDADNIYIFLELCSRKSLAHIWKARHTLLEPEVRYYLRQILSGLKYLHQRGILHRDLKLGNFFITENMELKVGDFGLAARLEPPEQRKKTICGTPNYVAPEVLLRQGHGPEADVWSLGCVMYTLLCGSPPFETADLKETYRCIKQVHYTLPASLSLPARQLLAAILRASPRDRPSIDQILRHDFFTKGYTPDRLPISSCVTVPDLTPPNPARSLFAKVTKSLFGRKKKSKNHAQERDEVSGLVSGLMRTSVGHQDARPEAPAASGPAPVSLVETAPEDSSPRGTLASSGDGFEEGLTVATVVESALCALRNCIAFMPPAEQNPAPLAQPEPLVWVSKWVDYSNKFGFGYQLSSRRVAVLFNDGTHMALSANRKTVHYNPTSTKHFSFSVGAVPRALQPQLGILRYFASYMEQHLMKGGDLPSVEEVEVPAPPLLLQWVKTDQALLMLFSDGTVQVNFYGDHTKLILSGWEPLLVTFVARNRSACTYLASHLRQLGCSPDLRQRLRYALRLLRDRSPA
Procedure: [The source words this procedure for another target and says it was used here with some conditions changed.] as §1

VEGFR1 = VEGFR1 (Homo sapiens (Human), UniProt P17948); assay: Kinase profiling, % inhibition at 1.0 μM; assay type: biochemical; settings: compound 1.0 μM; read-out: Inhibitory activity at 1.0 μM (%), VEGFR1
Procedure: [The source words this procedure for another target and says it was used here with some conditions changed.] as §1

Aurora B = Aurora B (Homo sapiens (Human), UniProt Q96GD4); assay: Kinase profiling, % inhibition at 1.0 μM; assay type: biochemical; settings: compound 1.0 μM; read-out: Inhibitory activity at 1.0 μM (%), Aurora B
Aurora B, sequence (Q96GD4 whole entry): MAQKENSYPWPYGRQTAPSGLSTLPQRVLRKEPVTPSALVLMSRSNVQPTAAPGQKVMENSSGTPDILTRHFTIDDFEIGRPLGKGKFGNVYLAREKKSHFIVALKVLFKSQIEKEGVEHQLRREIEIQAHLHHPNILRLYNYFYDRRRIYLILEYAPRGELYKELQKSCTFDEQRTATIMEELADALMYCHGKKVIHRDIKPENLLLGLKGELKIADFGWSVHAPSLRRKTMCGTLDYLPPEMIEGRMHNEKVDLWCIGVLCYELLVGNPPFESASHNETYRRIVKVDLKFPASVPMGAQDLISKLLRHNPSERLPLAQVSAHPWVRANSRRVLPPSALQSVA
Procedure: [The source words this procedure for another target and says it was used here with some conditions changed.] as §1

Tie-2 = Tie-2 (Homo sapiens (Human), UniProt Q02763); assay: Kinase profiling, % inhibition at 1.0 μM; assay type: biochemical; settings: compound 1.0 μM; read-out: Inhibitory activity at 1.0 μM (%), Tie-2
Procedure: [The source words this procedure for another target and says it was used here with some conditions changed.] as §1

PLK2 = PLK2 (Homo sapiens (Human), UniProt Q9NYY3); assay: Kinase profiling, % inhibition at 1.0 μM; assay type: biochemical; settings: compound 1.0 μM; read-out: Inhibitory activity at 1.0 μM (%), PLK2
PLK2, sequence (Q9NYY3 whole entry): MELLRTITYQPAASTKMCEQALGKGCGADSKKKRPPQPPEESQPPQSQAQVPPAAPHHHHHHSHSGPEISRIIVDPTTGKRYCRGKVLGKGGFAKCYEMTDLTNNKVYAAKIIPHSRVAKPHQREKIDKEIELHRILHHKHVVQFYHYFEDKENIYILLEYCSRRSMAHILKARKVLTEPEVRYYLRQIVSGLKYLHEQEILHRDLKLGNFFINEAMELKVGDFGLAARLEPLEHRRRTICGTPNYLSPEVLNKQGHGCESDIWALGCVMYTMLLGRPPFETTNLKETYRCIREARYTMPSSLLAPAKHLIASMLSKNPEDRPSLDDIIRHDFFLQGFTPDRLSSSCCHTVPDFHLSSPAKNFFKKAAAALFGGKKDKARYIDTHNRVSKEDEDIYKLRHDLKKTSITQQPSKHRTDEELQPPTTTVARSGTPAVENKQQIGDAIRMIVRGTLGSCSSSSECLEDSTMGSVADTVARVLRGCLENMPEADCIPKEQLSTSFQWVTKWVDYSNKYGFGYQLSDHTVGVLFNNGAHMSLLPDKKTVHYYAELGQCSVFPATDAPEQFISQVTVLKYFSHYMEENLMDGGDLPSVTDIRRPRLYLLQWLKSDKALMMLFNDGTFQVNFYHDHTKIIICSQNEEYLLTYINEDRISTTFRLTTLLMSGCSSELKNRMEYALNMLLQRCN
Procedure: [The source words this procedure for another target and says it was used here with some conditions changed.] as §1

FGFR4 = FGFR4 (Homo sapiens (Human), UniProt P22455); assay: Kinase profiling, % inhibition at 1.0 μM; assay type: biochemical; settings: compound 1.0 μM; read-out: Inhibitory activity at 1.0 μM (%), FGFR4
FGFR4, sequence (P22455 22-802): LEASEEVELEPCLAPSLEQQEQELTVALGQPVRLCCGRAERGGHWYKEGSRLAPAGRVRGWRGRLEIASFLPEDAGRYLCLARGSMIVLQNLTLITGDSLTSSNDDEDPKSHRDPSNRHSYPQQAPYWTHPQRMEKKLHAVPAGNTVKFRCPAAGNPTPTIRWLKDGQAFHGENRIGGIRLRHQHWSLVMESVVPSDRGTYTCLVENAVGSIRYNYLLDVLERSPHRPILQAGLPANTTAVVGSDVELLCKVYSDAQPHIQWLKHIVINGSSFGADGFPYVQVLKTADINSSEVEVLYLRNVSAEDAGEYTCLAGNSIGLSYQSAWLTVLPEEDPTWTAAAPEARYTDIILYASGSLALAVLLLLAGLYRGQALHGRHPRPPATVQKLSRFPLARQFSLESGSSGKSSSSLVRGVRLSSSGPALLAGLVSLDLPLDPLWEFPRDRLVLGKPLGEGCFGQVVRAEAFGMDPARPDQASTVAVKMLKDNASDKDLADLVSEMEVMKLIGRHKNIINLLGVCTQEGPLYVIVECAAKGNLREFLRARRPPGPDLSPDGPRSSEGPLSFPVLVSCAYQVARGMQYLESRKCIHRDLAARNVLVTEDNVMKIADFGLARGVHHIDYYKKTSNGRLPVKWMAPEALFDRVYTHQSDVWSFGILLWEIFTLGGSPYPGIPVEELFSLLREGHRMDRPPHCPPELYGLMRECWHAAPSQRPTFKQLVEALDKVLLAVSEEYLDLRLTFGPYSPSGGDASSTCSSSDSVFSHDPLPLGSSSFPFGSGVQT
Procedure: [The source words this procedure for another target and says it was used here with some conditions changed.] as §1

c-Kit = c-Kit (Homo sapiens (Human), UniProt P10721); assay: Kinase profiling, % inhibition at 1.0 μM; assay type: biochemical; settings: compound 1.0 μM; read-out: Inhibitory activity at 1.0 μM (%), c-Kit
Procedure: [The source words this procedure for another target and says it was used here with some conditions changed.] as §1

Aurora A = Aurora A (Homo sapiens (Human), UniProt O14965); assay: Kinase profiling, % inhibition at 1.0 μM; assay type: biochemical; settings: compound 1.0 μM; read-out: Inhibitory activity at 1.0 μM (%), Aurora A
CDK2 = CDK2 (Homo sapiens (Human), UniProt P24941); assay: Kinase profiling, % inhibition at 1.0 μM; assay type: biochemical; settings: compound 1.0 μM; read-out: Inhibitory activity at 1.0 μM (%), CDK2
PLK1 = PLK1 (Homo sapiens (Human), UniProt P53350); assay: Kinase profiling, % inhibition at 1.0 μM; assay type: biochemical; settings: compound 1.0 μM; read-out: Inhibitory activity at 1.0 μM (%), PLK1

CCCS(=O)(=O)Nc1ccc(F)c(C(=O)c2c[nH]c3ncc(-c4ccc(Cl)cc4)cc23)c1F [reference, Vemurafenib, reference compound]
IC50 [1]: > 10000 nM

Cc1ccc(C(=O)Nc2ccccc2)cc1NC(=O)c1cccc2c(NC(C)(C)C)nccc12 [Example 8, 1-(t-butylamino)-N-(2-methyl-5-(phenylcarbamoyl)phenyl)isoquinoline-5-carboxamide]
IC50 (C-Raf): 20.5 nM

Cc1ccc(C(=O)Nc2ccc(Cl)c(C(F)(F)F)c2)cc1NC(=O)c1cccc2c(N)nccc12 [Example 4, 1-amino-N-(5-((4-chloro-3-(trifluoromethyl)phenyl)carbamoyl)-2-methylphenyl)isoquinoline-5-carboxamide]
IC50 (C-Raf): 10.7 nM

CCN1CCN(Cc2ccc(NC(=O)c3ccc(C)c(NC(=O)c4cccc5c(NC(C)(C)C)nccc45)c3)cc2C(F)(F)F)CC1 [Example 6, 1-(t-butylamino)-N-(5-((4-((4-ethylpiperazin-1-yl)methyl)-3-(trifluoromethyl)phenyl)carbamoyl)-2-methylphenyl)isoquinoline-5-carboxamide]
IC50 (C-Raf): 6.4 nM

Cc1ccc(C(=O)Nc2cccc(C(F)(F)F)c2)cc1NC(=O)c1cccc2c(NC(C)(C)C)nccc12 [Example 2, 1-(t-butylamino)-N-(2-methyl-5-((3-(trifluoromethyl)phenyl)carbamoyl)phenyl)isoquinoline-5-carboxamide]
IC50 (C-Raf): 11 nM
IC50 [1]: 365 nM

Cc1ccc(NC(=O)Nc2cccc(C(F)(F)F)c2)cc1NC(=O)c1cccc2c(N)nccc12 [Example 14, 1-amino-N-(2-methyl-5-(3-(3-(trifluoromethyl)phenyl)ureido)phenyl)isoquinoline-5-carboxamide]
IC50 (C-Raf): 108 nM

Cc1ccc(C(=O)Nc2cccc(C(F)(F)F)c2)cc1NC(=O)c1cccc2c(N)nccc12 [Example 3, 1-amino-N-(2-methyl-5-((3-(trifluoromethyl)phenyl)carbamoyl)phenyl)isoquinoline-5-carboxamide]
IC50 (C-Raf): 2.8 nM
IC50 [1]: 131 nM

Cc1cn(-c2cc(NC(=O)c3ccc(C)c(NC(=O)c4cccc5c(N)nccc45)c3)cc(C(F)(F)F)c2)cn1 [Example 11, 1-amino-N-(2-methyl-5-((3-(4-methyl-1H-imidazol-1-yl)-5-(trifluoromethyl)phenyl)carbamoyl)phenyl)isoquinoline-5-carboxamide]
IC50 (C-Raf): 94.8 nM

Cc1ccc(NC(=O)c2cccc(C(F)(F)F)c2)cc1NC(=O)c1cccc2c(N)nccc12 [Example 1, 1-amino-N-(2-methyl-5-(3-(trifluoromethyl)benzamido)phenyl)isoquinoline-5-carboxamide]
inhibition at 1 µM (CDK1): 9%
IC50 (Src): > 2500 nM
IC50 (FGFR-2): > 2500 nM
IC50 (Abl): > 2500 nM
IC50 (FGFR-1): > 2500 nM
IC50 (Her-2): > 2500 nM
IC50 (VEGFR-2): 261 nM
IC50 (PDGFR-α): 393 nM
IC50 (EGFR): > 2500 nM
IC50 (PDGFR-β): 66 nM
IC50 (B-Raf (WT)): 87 nM
IC50 (IGF-1R): > 2500 nM
IC50 (B-Raf (V600E)): 61 nM
IC50 (FLT-3): > 2500 nM
inhibition at 1 µM (PLK3): 9%
inhibition at 1 µM (VEGFR1): 9%
inhibition at 1 µM (Aurora B): 23%
inhibition at 1 µM (Tie-2): 20%
inhibition at 1 µM (PLK2): 7%
inhibition at 1 µM (FGFR4): 7%
inhibition at 1 µM (c-Kit): 34%
inhibition at 1 µM (Aurora A): 62%
IC50 (C-Raf): 6.1 nM
inhibition at 1 µM (CDK2): 6%
inhibition at 1 µM (PLK1): -1%
IC50 [1]: 210 nM

Reference: patent US9388165B2, “Isoquinoline-5-carboxamide derivative having inhibitory activity for protein kinase” (HANMI PHARM. CO., LTD., priority 2012, dated 2016)
